Data from paper PMC9736855, “Discovery of 3-Amino-1H-pyrazole-Based Kinase Inhibitors to Illuminate the Understudied PCTAIRE Family” (International Journal of Molecular Sciences, 2022).

Tests used:
Experiment in all cases: DSF
Assay type in all cases: binding
MELK = molecular target: T1, MELK (Homo sapiens, UniProt Q14680)
T1 construct: purchased in-house DSF panel (SGC Frankfurt)
Method: (§1) Measurements were performed in duplicates.

CDC42BPA = molecular target: T2, CDC42BPA (Homo sapiens, UniProt Q5VT25)
T2 construct: purchased in-house DSF panel (SGC Frankfurt)
T2 sequence (Q5VT25 1-414): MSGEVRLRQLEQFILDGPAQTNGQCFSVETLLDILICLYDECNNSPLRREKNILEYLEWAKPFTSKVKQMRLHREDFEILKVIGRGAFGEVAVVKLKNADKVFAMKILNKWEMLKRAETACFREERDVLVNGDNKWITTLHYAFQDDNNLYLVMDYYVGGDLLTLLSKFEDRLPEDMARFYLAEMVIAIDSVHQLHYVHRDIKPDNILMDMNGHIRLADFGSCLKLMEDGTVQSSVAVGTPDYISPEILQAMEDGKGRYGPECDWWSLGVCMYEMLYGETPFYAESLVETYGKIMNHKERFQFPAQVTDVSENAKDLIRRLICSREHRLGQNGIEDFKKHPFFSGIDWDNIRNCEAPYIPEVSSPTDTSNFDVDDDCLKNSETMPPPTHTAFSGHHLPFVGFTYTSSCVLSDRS
Method: as §1

EPHB3 = molecular target: T3, EPHB3 (Homo sapiens, UniProt P54753)
T3 construct: purchased in-house DSF panel (SGC Frankfurt)
T3 sequence (P54753 616-910): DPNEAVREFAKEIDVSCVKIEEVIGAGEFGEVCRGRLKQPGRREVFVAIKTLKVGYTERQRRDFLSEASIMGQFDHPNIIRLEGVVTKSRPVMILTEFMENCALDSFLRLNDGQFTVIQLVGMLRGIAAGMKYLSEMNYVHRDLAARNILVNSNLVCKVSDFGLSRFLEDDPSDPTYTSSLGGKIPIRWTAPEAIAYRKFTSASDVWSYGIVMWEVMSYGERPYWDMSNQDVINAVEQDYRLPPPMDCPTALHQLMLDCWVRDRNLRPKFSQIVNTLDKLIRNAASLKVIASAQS
Method: as §1

WNK1 = molecular target: T4, WNK1 (Homo sapiens, UniProt Q9H4A3)
T4 construct: purchased in-house DSF panel (SGC Frankfurt)
T4 sequence (Q9H4A3 206-483): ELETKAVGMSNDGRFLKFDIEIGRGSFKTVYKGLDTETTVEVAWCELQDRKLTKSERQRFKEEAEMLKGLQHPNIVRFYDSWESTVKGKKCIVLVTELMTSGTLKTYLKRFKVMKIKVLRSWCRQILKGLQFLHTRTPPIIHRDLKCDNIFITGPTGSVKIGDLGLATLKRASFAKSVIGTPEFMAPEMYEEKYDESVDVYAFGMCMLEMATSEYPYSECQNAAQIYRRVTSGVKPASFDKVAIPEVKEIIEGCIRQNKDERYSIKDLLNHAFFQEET
Method: as §1

MAP2K7 = molecular target: T5, MAP2K7 (Homo sapiens, UniProt O14733)
T5 construct: purchased in-house DSF panel (SGC Frankfurt)
T5 sequence (O14733 120-380): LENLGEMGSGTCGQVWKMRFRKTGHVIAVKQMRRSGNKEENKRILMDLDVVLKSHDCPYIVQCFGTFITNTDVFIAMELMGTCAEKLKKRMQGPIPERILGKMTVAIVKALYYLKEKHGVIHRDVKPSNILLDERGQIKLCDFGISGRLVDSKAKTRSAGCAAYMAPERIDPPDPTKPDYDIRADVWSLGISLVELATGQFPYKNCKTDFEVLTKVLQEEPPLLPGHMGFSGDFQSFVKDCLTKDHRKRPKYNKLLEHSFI
Method: as §1

PAK1 = molecular target: T6, PAK1 (Homo sapiens, UniProt Q13153)
T6 construct: purchased in-house DSF panel (SGC Frankfurt)
T6 sequence (Q13153 249-545): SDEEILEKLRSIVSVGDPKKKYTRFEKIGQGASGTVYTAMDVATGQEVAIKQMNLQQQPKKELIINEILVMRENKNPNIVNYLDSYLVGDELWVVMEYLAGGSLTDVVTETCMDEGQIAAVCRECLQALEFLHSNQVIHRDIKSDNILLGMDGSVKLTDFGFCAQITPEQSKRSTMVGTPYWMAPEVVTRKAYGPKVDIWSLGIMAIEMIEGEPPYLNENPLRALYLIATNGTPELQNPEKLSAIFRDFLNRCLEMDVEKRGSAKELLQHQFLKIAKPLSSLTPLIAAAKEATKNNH
Method: as §1

CAMK4 = molecular target: T7, CAMK4 (Homo sapiens, UniProt Q16566)
T7 construct: purchased in-house DSF panel (SGC Frankfurt)
T7 sequence (Q16566 46-300): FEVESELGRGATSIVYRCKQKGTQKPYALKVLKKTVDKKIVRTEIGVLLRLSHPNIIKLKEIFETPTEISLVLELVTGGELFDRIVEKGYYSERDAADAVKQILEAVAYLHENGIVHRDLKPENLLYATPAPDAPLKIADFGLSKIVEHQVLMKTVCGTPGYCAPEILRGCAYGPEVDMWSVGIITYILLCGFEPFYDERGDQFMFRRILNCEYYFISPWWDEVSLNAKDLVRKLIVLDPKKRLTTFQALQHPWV
Method: as §1

EPHA7 = molecular target: T8, EPHA7 (Homo sapiens, UniProt Q15375)
T8 construct: purchased in-house DSF panel (SGC Frankfurt)
T8 sequence (Q15375 590-899): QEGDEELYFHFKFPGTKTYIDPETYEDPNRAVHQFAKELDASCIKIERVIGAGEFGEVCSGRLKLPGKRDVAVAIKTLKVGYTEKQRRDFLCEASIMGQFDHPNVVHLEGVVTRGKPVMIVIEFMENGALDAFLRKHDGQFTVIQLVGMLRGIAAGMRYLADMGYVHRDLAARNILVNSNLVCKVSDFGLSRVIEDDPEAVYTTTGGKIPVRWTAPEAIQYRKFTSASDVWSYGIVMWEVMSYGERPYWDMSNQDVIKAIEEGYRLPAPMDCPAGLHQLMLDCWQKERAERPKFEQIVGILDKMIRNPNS
Method: as §1

PLK4 = molecular target: T9, PLK4 (Homo sapiens, UniProt O00444)
T9 construct: purchased in-house DSF panel (SGC Frankfurt)
T9 sequence (O00444 2-275): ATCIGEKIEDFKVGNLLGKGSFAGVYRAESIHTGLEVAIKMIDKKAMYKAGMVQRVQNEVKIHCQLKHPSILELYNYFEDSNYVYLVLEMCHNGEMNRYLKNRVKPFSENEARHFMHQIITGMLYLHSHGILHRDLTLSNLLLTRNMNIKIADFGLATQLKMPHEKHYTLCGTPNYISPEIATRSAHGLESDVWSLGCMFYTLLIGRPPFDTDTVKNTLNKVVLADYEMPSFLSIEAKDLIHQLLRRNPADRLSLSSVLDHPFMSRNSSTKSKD
Method: as §1

SLK = molecular target: T10, SLK (Homo sapiens, UniProt Q9H2G2)
T10 construct: purchased in-house DSF panel (SGC Frankfurt)
Method: as §1

STK39 = molecular target: T11, STK39 (Homo sapiens, UniProt Q9UEW8)
T11 construct: purchased in-house DSF panel (SGC Frankfurt)
Method: as §1

MERTK = molecular target: T12, MERTK (Homo sapiens, UniProt Q12866)
T12 construct: purchased in-house DSF panel (SGC Frankfurt)
T12 sequence (Q12866 570-864): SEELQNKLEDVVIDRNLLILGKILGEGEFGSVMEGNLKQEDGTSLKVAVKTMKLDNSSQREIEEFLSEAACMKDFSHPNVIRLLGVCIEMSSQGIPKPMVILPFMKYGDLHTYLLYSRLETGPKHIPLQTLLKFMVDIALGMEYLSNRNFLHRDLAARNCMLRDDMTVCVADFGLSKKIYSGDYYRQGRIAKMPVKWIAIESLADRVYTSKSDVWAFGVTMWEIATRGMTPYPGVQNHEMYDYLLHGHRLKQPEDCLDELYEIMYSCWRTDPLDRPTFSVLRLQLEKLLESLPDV
Method: as §1

OSR1 = molecular target: T13, OSR1 (Homo sapiens, UniProt O95747)
T13 construct: purchased in-house DSF panel (SGC Frankfurt)
T13 sequence (O95747 1-303): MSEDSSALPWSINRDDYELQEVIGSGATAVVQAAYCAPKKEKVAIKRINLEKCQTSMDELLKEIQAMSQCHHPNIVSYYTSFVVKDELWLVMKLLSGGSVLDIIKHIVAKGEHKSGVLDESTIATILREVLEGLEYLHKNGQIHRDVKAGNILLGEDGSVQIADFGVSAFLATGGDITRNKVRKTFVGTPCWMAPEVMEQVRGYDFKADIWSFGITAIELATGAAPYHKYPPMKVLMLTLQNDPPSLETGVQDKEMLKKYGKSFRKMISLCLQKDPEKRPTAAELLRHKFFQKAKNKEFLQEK
Method: as §1

FLT1 = molecular target: T14, FLT1 (Homo sapiens, UniProt P17948)
T14 construct: purchased in-house DSF panel (SGC Frankfurt)
T14 sequence (P17948 801-1158): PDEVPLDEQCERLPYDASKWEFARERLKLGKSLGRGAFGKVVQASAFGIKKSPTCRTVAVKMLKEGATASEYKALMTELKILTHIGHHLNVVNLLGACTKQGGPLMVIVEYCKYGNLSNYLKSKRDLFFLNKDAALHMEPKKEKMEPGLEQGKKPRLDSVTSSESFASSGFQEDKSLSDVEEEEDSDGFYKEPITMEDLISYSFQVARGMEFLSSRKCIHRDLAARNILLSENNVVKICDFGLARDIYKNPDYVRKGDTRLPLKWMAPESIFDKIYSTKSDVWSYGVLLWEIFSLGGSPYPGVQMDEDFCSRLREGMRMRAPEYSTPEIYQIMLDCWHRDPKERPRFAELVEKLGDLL
Method: as §1

MARK4 = molecular target: T15, MARK4 (Homo sapiens, UniProt Q96L34)
T15 construct: purchased in-house DSF panel (SGC Frankfurt)
T15 sequence (Q96L34 59-310): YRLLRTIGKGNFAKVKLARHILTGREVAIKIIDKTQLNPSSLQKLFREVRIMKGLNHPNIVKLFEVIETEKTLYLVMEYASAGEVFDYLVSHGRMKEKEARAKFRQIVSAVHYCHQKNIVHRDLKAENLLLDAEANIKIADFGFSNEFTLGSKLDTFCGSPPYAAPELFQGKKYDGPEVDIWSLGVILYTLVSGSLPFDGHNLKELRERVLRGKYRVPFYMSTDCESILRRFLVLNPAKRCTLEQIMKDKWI
Method: as §1

DAPK1 = molecular target: T16, DAPK1 (Homo sapiens, UniProt P53355)
T16 construct: purchased in-house DSF panel (SGC Frankfurt)
T16 sequence (P53355 1-285): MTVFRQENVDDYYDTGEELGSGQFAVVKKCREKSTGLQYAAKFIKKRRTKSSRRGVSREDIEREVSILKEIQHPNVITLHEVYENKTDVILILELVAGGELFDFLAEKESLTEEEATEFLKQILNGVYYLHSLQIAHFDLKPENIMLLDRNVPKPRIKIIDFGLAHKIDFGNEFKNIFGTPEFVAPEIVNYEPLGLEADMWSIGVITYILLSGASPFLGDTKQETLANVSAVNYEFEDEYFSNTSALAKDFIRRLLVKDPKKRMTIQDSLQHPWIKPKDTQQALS
Method: as §1

STK10 = molecular target: T17, STK10 (Homo sapiens, UniProt O94804)
T17 construct: purchased in-house DSF panel (SGC Frankfurt)
T17 sequence (O94804 18-317): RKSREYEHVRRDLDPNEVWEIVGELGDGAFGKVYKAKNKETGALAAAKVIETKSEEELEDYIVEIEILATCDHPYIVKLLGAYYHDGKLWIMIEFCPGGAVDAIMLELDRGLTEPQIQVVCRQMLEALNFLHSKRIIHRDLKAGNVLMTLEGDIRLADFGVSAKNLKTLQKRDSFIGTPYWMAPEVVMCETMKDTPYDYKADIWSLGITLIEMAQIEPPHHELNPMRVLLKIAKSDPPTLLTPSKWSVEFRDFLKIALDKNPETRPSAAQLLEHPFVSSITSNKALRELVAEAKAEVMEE
Method: as §1

T1 sequence (Q14680 whole entry): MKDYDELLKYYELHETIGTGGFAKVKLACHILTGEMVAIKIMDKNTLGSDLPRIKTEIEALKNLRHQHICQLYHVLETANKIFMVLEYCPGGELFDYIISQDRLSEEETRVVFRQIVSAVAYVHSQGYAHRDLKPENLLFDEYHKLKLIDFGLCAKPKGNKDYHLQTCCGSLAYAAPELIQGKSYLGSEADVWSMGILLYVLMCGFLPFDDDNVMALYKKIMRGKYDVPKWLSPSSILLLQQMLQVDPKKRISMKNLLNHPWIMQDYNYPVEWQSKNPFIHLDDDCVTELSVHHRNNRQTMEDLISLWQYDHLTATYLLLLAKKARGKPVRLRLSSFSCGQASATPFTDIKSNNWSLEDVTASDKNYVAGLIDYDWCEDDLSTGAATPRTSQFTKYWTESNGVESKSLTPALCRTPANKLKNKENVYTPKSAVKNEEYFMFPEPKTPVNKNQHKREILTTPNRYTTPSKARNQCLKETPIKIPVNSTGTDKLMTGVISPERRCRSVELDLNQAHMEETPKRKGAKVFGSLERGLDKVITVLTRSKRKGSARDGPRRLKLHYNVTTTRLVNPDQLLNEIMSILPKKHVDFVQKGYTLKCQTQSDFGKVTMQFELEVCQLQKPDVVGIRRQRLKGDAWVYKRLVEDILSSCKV

CC(C)OC(=O)c1cc(Nc2ccnc(NCc3ccc(NC(=O)OC(C)(C)C)cc3)n2)n[nH]1 [42d, isopropyl 3-((2-((4-((tert-butoxycarbonyl)amino)benzyl)amino)pyrimidin-4-yl)amino)-1H-pyrazole-5-carboxylate]
ΔTm MELK (MELK): -0.8 °C
ΔTm CDC42BPA (CDC42BPA): -0.7 °C
ΔTm EPHB3 (EPHB3): 1.3 °C
ΔTm WNK1 (WNK1): 0.1 °C
ΔTm MAP2K7 (MAP2K7): -0.3 °C
ΔTm PAK1 (PAK1): -1.1 °C
ΔTm CAMK4 (CAMK4): 0.4 °C
ΔTm EPHA7 (EPHA7): -3.1 °C
ΔTm PLK4 (PLK4): 3.7 °C
ΔTm SLK (SLK): -0.6 °C
ΔTm STK39 (STK39): -0.6 °C
ΔTm MERTK (MERTK): -0.8 °C
ΔTm OSR1 (OSR1): -0.8 °C
ΔTm FLT1 (FLT1): 0.6 °C
ΔTm MARK4 (MARK4): 0.3 °C
ΔTm DAPK1 (DAPK1): -0.3 °C
ΔTm STK10 (STK10): -0.7 °C

N#CCc1ccc(Nc2nccc(Nc3cc(C4CC4)[nH]n3)n2)cc1 [compound 1, reference compound]
ΔTm MELK (MELK): 9.8 °C
ΔTm CDC42BPA (CDC42BPA): -0.1 °C
ΔTm EPHB3 (EPHB3): 5.1 °C
ΔTm WNK1 (WNK1): 1.1 °C
ΔTm MAP2K7 (MAP2K7): 12.0 °C
ΔTm PAK1 (PAK1): 3.3 °C
ΔTm CAMK4 (CAMK4): 5.4 °C
ΔTm EPHA7 (EPHA7): 4.9 °C
ΔTm PLK4 (PLK4): 11.1 °C
ΔTm SLK (SLK): 8.8 °C
ΔTm STK39 (STK39): 7.6 °C
ΔTm MERTK (MERTK): 4.4 °C
ΔTm OSR1 (OSR1): 5.6 °C
ΔTm FLT1 (FLT1): 10.6 °C
ΔTm MARK4 (MARK4): 8.2 °C
ΔTm DAPK1 (DAPK1): 4.9 °C
ΔTm STK10 (STK10): 10.1 °C

COC(=O)c1cc(Nc2ccnc(NCCOCCNC(=O)OC(C)(C)C)n2)[nH]n1 [21d, methyl 5-((2-((2-(2-((tert-butoxycarbonyl)amino)ethoxy)ethyl)amino)pyrimidin-4-yl)amino)-1H-pyrazole-3-carboxylate]
ΔTm MELK (MELK): 0.8 °C
ΔTm CDC42BPA (CDC42BPA): 0.5 °C
ΔTm EPHB3 (EPHB3): 0.8 °C
ΔTm WNK1 (WNK1): 0.9 °C
ΔTm MAP2K7 (MAP2K7): 0.7 °C
ΔTm PAK1 (PAK1): 1.1 °C
ΔTm CAMK4 (CAMK4): -0.2 °C
ΔTm EPHA7 (EPHA7): 1.3 °C
ΔTm PLK4 (PLK4): 3.0 °C
ΔTm SLK (SLK): 1.0 °C
ΔTm STK39 (STK39): 1.8 °C
ΔTm MERTK (MERTK): 1.9 °C
ΔTm OSR1 (OSR1): 0.3 °C
ΔTm FLT1 (FLT1): 2.0 °C
ΔTm MARK4 (MARK4): 1.7 °C
ΔTm DAPK1 (DAPK1): -2.4 °C
ΔTm STK10 (STK10): -0.7 °C

CC(C)(C)OC(=O)Nc1ccc(CNc2nccc(Nc3cc(C(=O)OC(C)(C)C)[nH]n3)n2)cc1 [43d, tert-butyl 3-((2-((4-((tert-butoxycarbonyl)amino)benzyl)amino)pyrimidin-4-yl)amino)-1H-pyrazole-5-carboxylate]
ΔTm MELK (MELK): 0.2 °C
ΔTm CDC42BPA (CDC42BPA): -0.8 °C
ΔTm EPHB3 (EPHB3): 1.7 °C
ΔTm WNK1 (WNK1): -0.1 °C
ΔTm MAP2K7 (MAP2K7): -3.0 °C
ΔTm PAK1 (PAK1): -0.6 °C
ΔTm CAMK4 (CAMK4): 1.2 °C
ΔTm EPHA7 (EPHA7): -3.4 °C
ΔTm PLK4 (PLK4): 5.5 °C
ΔTm SLK (SLK): 0.1 °C
ΔTm STK39 (STK39): -0.9 °C
ΔTm MERTK (MERTK): -0.8 °C
ΔTm OSR1 (OSR1): -0.4 °C
ΔTm FLT1 (FLT1): 0.9 °C
ΔTm MARK4 (MARK4): -0.5 °C
ΔTm DAPK1 (DAPK1): -0.4 °C
ΔTm STK10 (STK10): -0.8 °C

COC(=O)c1cc(Nc2ccnc(NCc3ccc(NC(=O)OC(C)(C)C)cc3)n2)[nH]n1 [21i, methyl 5-((2-((4-((tert-butoxycarbonyl)amino)benzyl)amino)pyrimidin-4-yl)amino)-1H-pyrazole-3-carboxylate]
ΔTm MELK (MELK): 0.9 °C
ΔTm CDC42BPA (CDC42BPA): -0.5 °C
ΔTm EPHB3 (EPHB3): 0.4 °C
ΔTm WNK1 (WNK1): 0.6 °C
ΔTm MAP2K7 (MAP2K7): 0.5 °C
ΔTm PAK1 (PAK1): -0.4 °C
ΔTm CAMK4 (CAMK4): -0.4 °C
ΔTm EPHA7 (EPHA7): 0.6 °C
ΔTm PLK4 (PLK4): 4.1 °C
ΔTm SLK (SLK): 0.2 °C
ΔTm STK39 (STK39): 2.1 °C
ΔTm MERTK (MERTK): -0.1 °C
ΔTm OSR1 (OSR1): 0.6 °C
ΔTm FLT1 (FLT1): 2.2 °C
ΔTm MARK4 (MARK4): 3.3 °C
ΔTm DAPK1 (DAPK1): 0.6 °C
ΔTm STK10 (STK10): -0.7 °C

CN[C@@H]1C[C@H]2O[C@@](C)([C@@H]1OC)n1c3ccccc3c3c4c(c5c6ccccc6n2c5c31)C(=O)NC4 [staurosporine, reference compound]
ΔTm MELK (MELK): 13.8 °C
ΔTm CDC42BPA (CDC42BPA): 2.8 °C
ΔTm EPHB3 (EPHB3): 5.0 °C
ΔTm WNK1 (WNK1): 0.9 °C
ΔTm MAP2K7 (MAP2K7): 8.4 °C
ΔTm PAK1 (PAK1): 6.6 °C
ΔTm CAMK4 (CAMK4): 8.6 °C
ΔTm EPHA7 (EPHA7): 10.3 °C
ΔTm PLK4 (PLK4): 16.0 °C
ΔTm SLK (SLK): 18.0 °C
ΔTm STK39 (STK39): 9.6 °C
ΔTm MERTK (MERTK): 6.6 °C
ΔTm OSR1 (OSR1): 7.7 °C
ΔTm FLT1 (FLT1): 13.6 °C
ΔTm MARK4 (MARK4): 16.4 °C
ΔTm DAPK1 (DAPK1): 9.8 °C
ΔTm STK10 (STK10): 23.3 °C
